Laboratory results reported in US10077261B2, “Imidazolin-5-one derivative useful as FASN inhibitors for the treatment of cancer” (Janssen Pharmaceutica NV, priority 2012, dated 2018).

Molecular target: T1, hFASN enzyme (full length) (Homo sapiens, UniProt P49327)
T1 construct: 10 μL hFASN enzyme (full length, 300 ng, purified in house); made in house
Experiment: Fatty Acid Synthase (FASN) inhibition scintillation proximity assay
Assay type: biochemical
Settings: for inhibition at 10 µM: read-out: Human FASN % inhibition @ 10 μM, 10 μM test compound; for IC50: read-out: Human FASN pIC50 (converted)
Outline: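 Read-out relies on hydrophobic ³H-palmitate product, formed from ³H-acetyl-CoA and malonyl-CoA, binding streptavidin imaging beads, measured at 610±20 nm after at least 24 h. Full-length enzyme (300 ng) in phosphate buffer pH 7.5 with DTT; eight compound concentrations, 0.01–30 μM.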

T1 sequence (P49327 whole entry): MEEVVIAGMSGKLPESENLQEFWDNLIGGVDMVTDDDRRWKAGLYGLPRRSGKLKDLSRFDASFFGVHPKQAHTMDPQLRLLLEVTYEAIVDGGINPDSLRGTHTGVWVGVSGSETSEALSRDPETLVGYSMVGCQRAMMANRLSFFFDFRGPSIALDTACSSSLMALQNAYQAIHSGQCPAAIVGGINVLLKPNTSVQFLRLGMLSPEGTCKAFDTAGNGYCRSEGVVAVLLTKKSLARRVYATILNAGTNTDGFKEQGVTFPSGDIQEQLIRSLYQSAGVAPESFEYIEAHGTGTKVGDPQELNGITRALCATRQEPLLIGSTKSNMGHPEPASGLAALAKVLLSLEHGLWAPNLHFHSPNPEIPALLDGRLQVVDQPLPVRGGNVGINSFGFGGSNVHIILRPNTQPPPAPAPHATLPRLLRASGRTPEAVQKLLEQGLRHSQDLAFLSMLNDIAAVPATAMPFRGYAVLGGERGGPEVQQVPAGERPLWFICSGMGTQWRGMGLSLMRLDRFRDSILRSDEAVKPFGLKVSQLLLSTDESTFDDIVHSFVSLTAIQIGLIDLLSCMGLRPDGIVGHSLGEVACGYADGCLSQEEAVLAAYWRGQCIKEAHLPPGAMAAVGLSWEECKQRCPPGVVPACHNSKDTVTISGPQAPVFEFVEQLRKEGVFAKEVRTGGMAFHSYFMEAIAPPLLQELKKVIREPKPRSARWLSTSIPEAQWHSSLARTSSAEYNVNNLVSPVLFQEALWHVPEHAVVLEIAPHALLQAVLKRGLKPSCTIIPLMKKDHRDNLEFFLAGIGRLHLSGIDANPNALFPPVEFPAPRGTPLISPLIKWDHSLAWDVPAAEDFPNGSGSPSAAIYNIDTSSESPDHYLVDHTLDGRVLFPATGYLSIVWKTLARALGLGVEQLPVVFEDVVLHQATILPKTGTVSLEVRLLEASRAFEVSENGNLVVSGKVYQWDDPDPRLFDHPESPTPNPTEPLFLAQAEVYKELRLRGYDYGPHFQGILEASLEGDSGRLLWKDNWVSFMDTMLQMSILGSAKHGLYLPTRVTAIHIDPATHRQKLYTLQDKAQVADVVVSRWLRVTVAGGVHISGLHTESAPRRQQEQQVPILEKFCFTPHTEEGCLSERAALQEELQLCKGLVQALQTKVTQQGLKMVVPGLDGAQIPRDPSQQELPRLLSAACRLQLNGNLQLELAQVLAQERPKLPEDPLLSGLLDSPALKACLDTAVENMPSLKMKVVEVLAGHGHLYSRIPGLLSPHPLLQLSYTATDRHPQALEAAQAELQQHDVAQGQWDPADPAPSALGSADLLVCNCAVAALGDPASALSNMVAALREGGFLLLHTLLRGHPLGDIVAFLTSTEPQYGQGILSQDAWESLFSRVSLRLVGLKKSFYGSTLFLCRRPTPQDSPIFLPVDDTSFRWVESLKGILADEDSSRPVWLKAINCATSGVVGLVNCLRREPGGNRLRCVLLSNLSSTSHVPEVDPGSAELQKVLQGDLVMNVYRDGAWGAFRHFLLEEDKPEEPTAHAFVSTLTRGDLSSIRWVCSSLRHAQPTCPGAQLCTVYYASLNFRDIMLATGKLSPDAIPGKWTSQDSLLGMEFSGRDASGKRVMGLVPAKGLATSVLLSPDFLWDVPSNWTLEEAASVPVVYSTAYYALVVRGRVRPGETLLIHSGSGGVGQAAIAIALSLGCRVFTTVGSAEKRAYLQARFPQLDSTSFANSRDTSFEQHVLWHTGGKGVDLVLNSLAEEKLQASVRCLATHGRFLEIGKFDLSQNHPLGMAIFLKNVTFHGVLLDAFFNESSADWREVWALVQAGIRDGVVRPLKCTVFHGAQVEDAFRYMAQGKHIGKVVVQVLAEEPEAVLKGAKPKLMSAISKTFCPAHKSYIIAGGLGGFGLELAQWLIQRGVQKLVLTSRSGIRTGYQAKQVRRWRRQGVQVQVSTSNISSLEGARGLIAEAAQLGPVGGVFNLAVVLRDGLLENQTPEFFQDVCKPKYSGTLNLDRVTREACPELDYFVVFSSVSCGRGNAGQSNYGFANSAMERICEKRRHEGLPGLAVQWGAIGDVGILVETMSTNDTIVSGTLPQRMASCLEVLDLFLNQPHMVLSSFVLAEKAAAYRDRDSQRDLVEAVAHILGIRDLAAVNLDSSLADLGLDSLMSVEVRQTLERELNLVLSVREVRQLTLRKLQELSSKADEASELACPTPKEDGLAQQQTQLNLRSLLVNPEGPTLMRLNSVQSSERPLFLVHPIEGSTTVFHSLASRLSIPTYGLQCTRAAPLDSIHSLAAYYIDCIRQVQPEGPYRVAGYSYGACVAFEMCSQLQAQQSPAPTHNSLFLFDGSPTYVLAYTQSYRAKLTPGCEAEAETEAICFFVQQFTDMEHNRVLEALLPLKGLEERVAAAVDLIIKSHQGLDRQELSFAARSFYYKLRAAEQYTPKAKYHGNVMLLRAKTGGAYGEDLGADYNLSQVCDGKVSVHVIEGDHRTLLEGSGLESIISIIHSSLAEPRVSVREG

| Compound | inhibition at 10 µM [%] | IC50 [µM] |
| --- | --- | --- |
| CC(C)N1CCC2(CC1)N=C(c1ccc(-c3ccc4[nH]ncc4c3)cc1)N(CC1CN(C(=O)C3CC3)C1)C2=O [compound 188, 3-{[1-(Cyclopropylcarbonyl)azetidin-3-yl]methyl}-2-[4-(1H-indazol-5-yl)phenyl]-8-(1-methylethyl)-1,3,8-triazaspiro[4.5]dec-1-en-4-one] | 50.4 | ~10 |
| Cc1ccc2ccc(-c3ccc(C4=NC5(CC5)C(=O)N4CC4CN(C(=O)C5CC5)C4)cc3)cc2n1 [compound 513, 6-{[1-(Cyclopropylcarbonyl)azetidin-3-yl]methyl}-5-[4-(2-methylquinolin-7-yl)phenyl]-4,6-diazaspiro[2.4]hept-4-en-7-one] | 85 | 1.23 |
| Cn1ccc2cc(-c3ccc(C4=NC5(CC5)C(=O)N4CC4CN(C(=O)C5CC5)C4)c(F)c3)ccc21 [compound 870, 6-((1-(cyclopropanecarbonyl)azetidin-3-yl)methyl)-5-(2-fluoro-4-(1-methy7l-1H-indol-5-yl)phenyl)-4,6-diazaspiro[2.4]hept-4-en-7-one] | – | 0.0269 |
| Cn1ncc2cc(-c3ccc(C4=NC5(CCOCC5)C(=O)N4CC4CN(C(=O)c5nccs5)C4)cc3)ccc21 [compound 908, 2-(4-(1-methyl-1H-indazol-5-yl)phenyl)-3-((1-(thiazole-2-carbonyl)azetidin-3-yl)methyl)-8-oxa-1,3-diazaspiro[4.5]dec-1-en-4-one] | 2 | > 10 |
| Cn1cc(-c2ccc(-c3ccc(C4=NC5(CCOCC5)C(=O)N4CC4CN(C(=O)C(F)(F)F)C4)cc3)cc2)cn1 [compound 893, 2-(4′-(1-methyl-1H-pyrazol-4-yl)-[1,1′-biphenyl]-4-yl)-3-((1-(2,2,2-trifluoroacetyl)azetidin-3-yl)methyl)-8-oxa-1,3-diazaspiro[4.5]dec-1-en-4-one] | -12 | > 10 |
| O=C(c1nccs1)N1CC[C@@H](CN2C(=O)C3(CCOC3)N=C2c2ccc(-c3ccc4cccnc4c3)cc2)C1 (stereo partly drawn) [compound 920, 2-(4-(quinolin-7-yl)phenyl)-3-(((R)-1-(thiazole-2-carbonyl)pyrrolidin-3-yl)methyl)-7-oxa-1,3-diazaspiro[4.4]non-1-en-4-one] | 35 | > 10 |
| O=C(C1CC1)N1CC(CN2C(=O)C3(CC3)N=C2c2ccc(-c3ccc4c(cnn4C4CC4)c3)cc2)C1 [compound 803, 6-((1-(cyclopropanecarbonyl)azetidin-3-yl)methyl)-5-(4-(1-cyclopropyl-1H-indazol-5-yl)phenyl)-4,6-diazaspiro[2.4]hept-4-en-7-one] | 48 | > 10 |
| CN(C)CC(=O)N1CCC2(CC1)N=C(c1ccc(-c3ccc4[nH]ccc4c3)cc1)N(C[C@@H]1CCN(C(=O)C3CC3)C1)C2=O [compound 164, 3-{[(3R)-1-(Cyclopropylcarbonyl)pyrrolidin-3-yl]methyl}-8-(N,N-dimethylflycyl)-2-[4-(1H-indol-5-yl)phenyl]-1,3,8-triazaspiro[4.5]dec-1-en-4-one] | 115 | 0.0398 |
| COC(=O)N1CC(CN2C(=O)C3(CCOC3)N=C2c2ccc(-c3ccc4cccnc4c3)cc2)C1 (stereo not drawn) [compound 903, methyl 3-((4-oxo-2-(4-(quinolin-7-yl)phenyl)-7-oxa-1,3-diazaspiro[4.4]non-1-en-3-yl)methyl)azetidine-1-carboxylate] | 15 | > 10 |
| Cn1nccc1-c1ccc(-c2ccc(C3=NC4(CC4)C(=O)N3C[C@@H]3CCN(C(=O)C4CC4)C3)cc2)cc1 [compound 407, 6-{[(3R)-1-(Cyclopropylcarbonyl)pyrrolidin-3-yl]methyl}-5-[4′-(1-methyl-1H-pyrazol-5-yl)biphenyl-4-yl]-4,6-diazaspiro[2.4]hept-4-en-7-one] | 69 | 2.34 |
| Cn1ncc2cc(-c3ccc(C4=NC5(CCOCC5)C(=O)N4C[C@@H]4CCN(S(C)(=O)=O)C4)cc3)ccc21 [compound 926, (S)-2-(4-(1-methyl-1H-indazol-5-yl)phenyl)-3-((1-(methylsulfonyl)pyrrolidin-3-yl)methyl)-8-oxa-1,3-diazaspiro[4.5]dec-1-en-4-one] | -8 | > 10 |
| CC(=O)N1CCC2(CC1)N=C(c1ccc(-c3ccc4[nH]ccc4c3)cc1)N(C[C@@H]1CCN(C(=O)C3CC3)C1)C2=O [compound 147, (R)-2-(4-(1H-Indol-5-yl)phenyl)-8-acetyl-3-((1-(cyclopropanecarbonyl)pyrrolidin-3-yl)methyl)-1,3,8-triazaspiro[4.5]dec-1-en-4-one] | 89.5 | 0.0708 |
| Cn1cc(-c2ccc(-c3ccc(C4=NC5(CCOCC5)C(=O)N4CC4CN(C(=O)c5nccs5)C4)cc3)cc2)cn1 [compound 911, 2-(4′-(1-methyl-1H-pyrazol-4-yl)-[1,1′-biphenyl]-4-yl)-3-((1-(thiazole-2-carbonyl)azetidin-3-yl)methyl)-8-oxa-1,3-diazaspiro[4.5]dec-1-en-4-one] | 7 | > 10 |
| Cn1cc(-c2ccc(-c3ccc(C4=NC5(CCN(C(=O)C6CC6)CC5)C(=O)N4CC4CN(C(=O)C5CC5)C4)cc3)cc2)cn1 [compound 770, 8-(Cyclopropylcarbonyl)-3-{[1-(cyclopropylcarbonyl)azetidin-3-yl]methyl}-2-[4′-(1-methyl-1H-pyrazol-4-yl)biphenyl-4-yl]-1,3,8-triazaspiro[4.5]dec-1-en-4-one] | 77 | 2.19 |
| O=C(C1CC1)N1CC[C@H](CN2C(=O)C3(CC3)N=C2c2ccc(-c3ccc(O)cc3)cc2)C1 [compound 408, 6-{[(3S)-1-(Cyclopropylcarbonyl)pyrrolidin-3-yl]methyl}-5-(4′-hydroxybiphenyl-4-yl)-4,6-diazaspiro[2.4]hept-4-en-7-one] | 63 | 5.13 |
| CS(=O)(=O)N1CC(CN2C(=O)C3(CCOCC3)N=C2c2ccc(-c3ccc4cccnc4c3)cc2)C1 [compound 912, 3-((1-(methylsulfonyl)azetidin-3-yl)methyl)-2-(4-(quinolin-7-yl)phenyl)-8-oxa-1,3-diazaspiro[4.5]dec-1-en-4-one] | 1 | > 10 |
| O=C(N1CC(CN2C(=O)C3(CCOC3)N=C2c2ccc(-c3ccc4cccnc4c3)cc2)C1)C(F)(F)F (stereo not drawn) [compound 895, 2-(4-(quinolin-7-yl)phenyl)-3-((1-(2,2,2-trifluoroacetyl)azetidin-3-yl)methyl)-7-oxa-1,3-diazaspiro[4.4]non-1-en-4-one] | 6 | > 10 |
| Cn1cc(-c2ccc(-c3ccc(C4=NC5(CCOCC5)C(=O)N4CC4CN(C(=O)C5CC5)C4)cc3)cc2)cn1 [compound 694, 3-{[1-(Cyclopropylcarbonyl)azetidin-3-yl]methyl}-2-[4-(1-methyl-1H-pyrazol-4-yl)biphenyl-4-yl]-8-oxa-1,3-diazaspiro[4.5]dec-1-en-4-one] | 69 | 2.45 |
| COC(=O)N1CC[C@@H](CN2C(=O)C3(CN(C(=O)OC)C3)N=C2c2ccc(-c3ccc4c(cnn4C)c3)cc2)C1 [compound 916, (S)-methyl 7-((1-(methoxycarbonyl)pyrrolidin-3-yl)methyl)-6-(4-(1-methyl-1H-indazol-5-yl)phenyl)-8-oxo-5,7-triazaspiro[3.4]oct-5-ene-2-carboxylate] | 20 | > 10 |
| COC(=O)N1CC[C@@H](CN2C(=O)C3(CN(C(=O)OC)C3)N=C2c2ccc(-c3ccc(-c4cnn(C)c4)cc3)cc2)C1 [compound 906, (S)-methyl 7-((1-(methoxycarbonyl)pyrrolidin-3-yl)methyl)-6-(4′-(1-methyl-1H-pyrazol-4-yl)-[1,1′-biphenyl]-4-yl)-8-oxo-2,5,7-triazaspiro[3.4]oct-5-ene-2-carboxylate] | 14 | > 10 |
| O=C(C1CC1)N1CCC(CN2C(=O)C3(CC3)N=C2c2ccc(-c3ccc4ocnc4c3)cc2)CC1 [compound 37, 5-[4-(1,3-Benzoxazol-5-yl)phenyl]-6-{[1-(cyclopropylcarbonyl)piperidin-4-yl]methyl}-4,6-diazaspiro[2.4]hept-4-en-7-one] | 28.6 | > 10 |
| Cn1cc(-c2ccc(-c3ccc(C4=NC5(CCNCC5)C(=O)N4CC4CN(C(=O)C5CC5)C4)cc3)cc2)cn1 [compound 759, 3-{[1-(Cyclopropylcarbonyl)azetidin-3-yl]methyl}-2-[4′-(1-methyl-1H-pyrazol-4-yl)biphenyl-4-yl]-1,3,8-triazaspiro[4.5]dec-1-en-4-one] | 38 | 9.12 |
| CC(C)C(=O)N1CCC2(CC1)N=C(c1ccc(-c3ccc4c(cnn4C)c3)cc1)N(CC1CN(C(=O)C3CC3)C1)C2=O [compound 135, 3-{[1-(Cyclopropylcarbonyl)azetidin-3-yl]methyl}-2-[4-(1-methyl-1H-indazol-5-yl)phenyl]-8-(2-methylpropanoyl)-1,3,8-triazaspiro[4.5]dec-1-en-4-one] | 78.9 | 2.45 |
